From PubChem BioAssay (NCI) come the findings set out here.

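Five compound concentrations were applied to cells in 96-well plates for 48 hours; endpoints were derived by simple linear interpolation of the resulting dose-response curve. GI50: concentration for 50% inhibition of growth. Definition used: TGI = concentration required for complete inhibition of growth.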

Among the test systems are COLO 205 colon; SW-620 colon; UO-31 renal; K-562 leukemia; HOP-92 NSCLC; HL-60(TB) leukemia; SF-295 CNS; HCT-116 colon; PC-3 prostate; MDA-MB-231 breast.
Experiment in all cases: inhibition of tumour cell growth, NCI panel, 48 h

For `C[C@]12CC[C@@H]3c4cc(OCC(F)(F)F)c(O)cc4/C(=N/O)C[C@H]3[C@@H]1CC[C@@H]2O`, the TGI in the experiment on COLO 205 colon was 35.3 µM; in the experiment with SW-620 colon, > 48.1 µM; with UO-31 renal, 20.8 µM; in the experiment with HOP-92 NSCLC, 26.3 µM; in the experiment with HL-60(TB) leukemia, > 100 µM; with SF-295 CNS it was 1.95 µM. The results for the TGI in the experiment with HCT-116 colon, in the experiment with PC-3 prostate and with MDA-MB-231 breast were 15.2 µM, 12 µM and 1.5 µM, respectively. For the same molecule, the GI50 with SW-620 colon is 0.0403 µM; in the experiment on UO-31 renal it was 0.149 µM; in the experiment on K-562 leukemia, 0.0213 µM; in the experiment with HL-60(TB) leukemia it was 0.031 µM; in the experiment on SF-295 CNS it was 0.0611 µM; with HCT-116 colon, 0.0421 µM.

For the molecule `CCSc1nc(SCC)c2cn[nH]c2n1`, the GI50 in the experiment with COLO 205 colon was 34.4 µM; with SW-620 colon, 39.5 µM; in the experiment with UO-31 renal, 34.9 µM; in the experiment with K-562 leukemia it was 67.1 µM; with HOP-92 NSCLC, 34.6 µM; in the experiment with HL-60(TB) leukemia it was 72.4 µM. The GI50 in the experiment on SF-295 CNS was > 100 µM; in the experiment with HCT-116 colon, 36.6 µM; in the experiment with PC-3 prostate, 39 µM; in the experiment on MDA-MB-231 breast, 23.2 µM. The TGI in the experiment with COLO 205 colon, with SW-620 colon, in the experiment with UO-31 renal, in the experiment on K-562 leukemia, in the experiment with HOP-92 NSCLC and in the experiment on HL-60(TB) leukemia was > 100 µM in each case. For the same molecule, the TGI in the experiment with SF-295 CNS, in the experiment with HCT-116 colon, with PC-3 prostate and in the experiment with MDA-MB-231 breast was > 100 µM each time.

Regarding `CC(C)C[C@H](NC(=O)/C=C/Cn1ccc2ccccc2c1=O)B(O)O`, the GI50 in the experiment with COLO 205 colon was 5.93 µM; with SW-620 colon it was 3.55 µM; with UO-31 renal, 9.45 µM; in the experiment on K-562 leukemia it was 6 µM; with HOP-92 NSCLC, 6.49 µM; with HL-60(TB) leukemia it was 2.95 µM. Besides, the GI50 in the experiment with SF-295 CNS was 2.75 µM; with HCT-116 colon, 2.95 µM; in the experiment with PC-3 prostate, 17.4 µM; in the experiment on MDA-MB-231 breast it was 2.85 µM. The TGI is > 100 µM with COLO 205 colon; > 100 µM in the experiment on SW-620 colon; > 100 µM in the experiment on UO-31 renal; > 100 µM with K-562 leukemia; 30.4 µM in the experiment with HOP-92 NSCLC; > 100 µM in the experiment with HL-60(TB) leukemia. Further, the TGI in the experiment on SF-295 CNS was 15.1 µM; in the experiment on HCT-116 colon, 12.6 µM; with PC-3 prostate, > 100 µM; in the experiment with MDA-MB-231 breast it was 8.14 µM.

Consider `CC1=CC(C/C(C)=C/COc2ccc3ccc(=O)oc3c2)OC1=O` (stereo not given), for which the TGI in the experiment on COLO 205 colon, with SW-620 colon, in the experiment with UO-31 renal, in the experiment on K-562 leukemia, in the experiment on HOP-92 NSCLC and with HL-60(TB) leukemia was > 100 µM in each case. The TGI with SF-295 CNS, in the experiment with HCT-116 colon, in the experiment on PC-3 prostate and in the experiment on MDA-MB-231 breast was > 100 µM throughout.

For the molecule `O=S(=O)(Nc1cc(Sc2cccc3cccnc23)c(O)c2ccccc12)c1ccccc1`, the GI50 is 1.71 µM in the experiment with COLO 205 colon; 1.04 µM in the experiment on SW-620 colon; 0.734 µM in the experiment with UO-31 renal; 0.929 µM with K-562 leukemia; 2.61 µM in the experiment with HOP-92 NSCLC; 0.487 µM with HL-60(TB) leukemia. The GI50 is 2.84 µM in the experiment with SF-295 CNS, 0.555 µM in the experiment on HCT-116 colon, 0.467 µM in the experiment with PC-3 prostate and 0.47 µM in the experiment with MDA-MB-231 breast. Further, the TGI with COLO 205 colon stood at 3.7 µM; in the experiment with SW-620 colon, 11.6 µM; in the experiment on UO-31 renal, 4.76 µM; with K-562 leukemia, 16.5 µM; with HOP-92 NSCLC, 7.38 µM; in the experiment on HL-60(TB) leukemia, 4.69 µM. In addition, the TGI in the experiment on SF-295 CNS was determined as 15 µM; in the experiment on HCT-116 colon, 2.8 µM; in the experiment on PC-3 prostate, 13.1 µM; in the experiment with MDA-MB-231 breast it was 6.01 µM.

For `Cc1ncc(CCCN(C)C)cc1Nc1ncc2c(n1)-c1ccc(C(F)(F)F)cc1NC(=S)C2`, the GI50 is < 0.0111 µM in the experiment on COLO 205 colon; < 0.01 µM in the experiment on SW-620 colon; 0.494 µM in the experiment on UO-31 renal; < 0.0169 µM in the experiment with K-562 leukemia; 0.0216 µM with HOP-92 NSCLC; < 0.0148 µM in the experiment with HL-60(TB) leukemia. The GI50 in the experiment on SF-295 CNS is < 0.01 µM; in the experiment with HCT-116 colon, < 0.0176 µM; with PC-3 prostate, < 0.0207 µM; with MDA-MB-231 breast, < 0.0153 µM. Also, the TGI was < 0.0198 µM in the experiment on COLO 205 colon; 12.3 µM in the experiment with SW-620 colon; 12.5 µM with UO-31 renal; > 34 µM with K-562 leukemia; 0.519 µM in the experiment on HOP-92 NSCLC; 0.872 µM in the experiment on HL-60(TB) leukemia. Further, the TGI came out at 2.7 µM in the experiment on SF-295 CNS, 14.4 µM in the experiment on HCT-116 colon, 24.5 µM in the experiment with PC-3 prostate and 0.302 µM in the experiment on MDA-MB-231 breast.

For `O=c1cc(NC2CCN(CCCc3ccccc3)CC2)c2cc(Cl)ccc2o1`, the GI50 with COLO 205 colon was 9.98 µM; in the experiment with SW-620 colon, 15 µM; with UO-31 renal it was 4.39 µM; in the experiment with K-562 leukemia, 3.86 µM; in the experiment with HOP-92 NSCLC, 11.9 µM; in the experiment with HL-60(TB) leukemia it was 20.5 µM. The GI50 in the experiment with SF-295 CNS is 15.1 µM; in the experiment on HCT-116 colon it was 4.02 µM; with PC-3 prostate, 12.9 µM; with MDA-MB-231 breast, 9.42 µM. Further, the TGI with COLO 205 colon was determined as 23.2 µM; with SW-620 colon, 30.5 µM; in the experiment with UO-31 renal, 17.8 µM; in the experiment with K-562 leukemia it was 20.5 µM; in the experiment with HOP-92 NSCLC it was 27.7 µM; in the experiment on HL-60(TB) leukemia, 49.3 µM. The TGI with SF-295 CNS was found to be 29.9 µM; in the experiment on HCT-116 colon, 16.5 µM; in the experiment on PC-3 prostate it was 26.9 µM; in the experiment on MDA-MB-231 breast it was 22.9 µM.

Regarding `CN(C)C(=O)[C@H](O)[C@H](Cc1ccccc1)NC(=O)c1cc2cc(Cl)ccc2[nH]1`, the GI50 was 16.1 µM with COLO 205 colon; 26.4 µM with SW-620 colon; 14.8 µM in the experiment on UO-31 renal; 25.8 µM in the experiment with K-562 leukemia; 17 µM with HOP-92 NSCLC; 19.1 µM in the experiment with HL-60(TB) leukemia. Besides, the GI50 in the experiment with SF-295 CNS is 17.3 µM; in the experiment with HCT-116 colon, 25 µM; in the experiment on PC-3 prostate, 24.4 µM; with MDA-MB-231 breast it was 19.6 µM. For the same molecule, the TGI is 30.3 µM with COLO 205 colon; > 100 µM in the experiment on SW-620 colon; 39.8 µM with UO-31 renal; > 100 µM with K-562 leukemia; 56.8 µM in the experiment with HOP-92 NSCLC; 54.1 µM with HL-60(TB) leukemia. The TGI in the experiment on SF-295 CNS is 39 µM; with HCT-116 colon, > 87 µM; with PC-3 prostate it was > 89.6 µM; in the experiment with MDA-MB-231 breast, 52.8 µM.
